Measured values: BindingDB's records for doi:10.1016/j.bmcl.2006.02.011 (Zhengzhou University, 2006)
pIC50: −log10 of the molar value.

Molecular target: Maltase-glucoamylase (Homo sapiens, UniProt O43451)
Experiment: Inhibition of alpha glucosidase

Chain of Maltase-glucoamylase (O43451 whole entry): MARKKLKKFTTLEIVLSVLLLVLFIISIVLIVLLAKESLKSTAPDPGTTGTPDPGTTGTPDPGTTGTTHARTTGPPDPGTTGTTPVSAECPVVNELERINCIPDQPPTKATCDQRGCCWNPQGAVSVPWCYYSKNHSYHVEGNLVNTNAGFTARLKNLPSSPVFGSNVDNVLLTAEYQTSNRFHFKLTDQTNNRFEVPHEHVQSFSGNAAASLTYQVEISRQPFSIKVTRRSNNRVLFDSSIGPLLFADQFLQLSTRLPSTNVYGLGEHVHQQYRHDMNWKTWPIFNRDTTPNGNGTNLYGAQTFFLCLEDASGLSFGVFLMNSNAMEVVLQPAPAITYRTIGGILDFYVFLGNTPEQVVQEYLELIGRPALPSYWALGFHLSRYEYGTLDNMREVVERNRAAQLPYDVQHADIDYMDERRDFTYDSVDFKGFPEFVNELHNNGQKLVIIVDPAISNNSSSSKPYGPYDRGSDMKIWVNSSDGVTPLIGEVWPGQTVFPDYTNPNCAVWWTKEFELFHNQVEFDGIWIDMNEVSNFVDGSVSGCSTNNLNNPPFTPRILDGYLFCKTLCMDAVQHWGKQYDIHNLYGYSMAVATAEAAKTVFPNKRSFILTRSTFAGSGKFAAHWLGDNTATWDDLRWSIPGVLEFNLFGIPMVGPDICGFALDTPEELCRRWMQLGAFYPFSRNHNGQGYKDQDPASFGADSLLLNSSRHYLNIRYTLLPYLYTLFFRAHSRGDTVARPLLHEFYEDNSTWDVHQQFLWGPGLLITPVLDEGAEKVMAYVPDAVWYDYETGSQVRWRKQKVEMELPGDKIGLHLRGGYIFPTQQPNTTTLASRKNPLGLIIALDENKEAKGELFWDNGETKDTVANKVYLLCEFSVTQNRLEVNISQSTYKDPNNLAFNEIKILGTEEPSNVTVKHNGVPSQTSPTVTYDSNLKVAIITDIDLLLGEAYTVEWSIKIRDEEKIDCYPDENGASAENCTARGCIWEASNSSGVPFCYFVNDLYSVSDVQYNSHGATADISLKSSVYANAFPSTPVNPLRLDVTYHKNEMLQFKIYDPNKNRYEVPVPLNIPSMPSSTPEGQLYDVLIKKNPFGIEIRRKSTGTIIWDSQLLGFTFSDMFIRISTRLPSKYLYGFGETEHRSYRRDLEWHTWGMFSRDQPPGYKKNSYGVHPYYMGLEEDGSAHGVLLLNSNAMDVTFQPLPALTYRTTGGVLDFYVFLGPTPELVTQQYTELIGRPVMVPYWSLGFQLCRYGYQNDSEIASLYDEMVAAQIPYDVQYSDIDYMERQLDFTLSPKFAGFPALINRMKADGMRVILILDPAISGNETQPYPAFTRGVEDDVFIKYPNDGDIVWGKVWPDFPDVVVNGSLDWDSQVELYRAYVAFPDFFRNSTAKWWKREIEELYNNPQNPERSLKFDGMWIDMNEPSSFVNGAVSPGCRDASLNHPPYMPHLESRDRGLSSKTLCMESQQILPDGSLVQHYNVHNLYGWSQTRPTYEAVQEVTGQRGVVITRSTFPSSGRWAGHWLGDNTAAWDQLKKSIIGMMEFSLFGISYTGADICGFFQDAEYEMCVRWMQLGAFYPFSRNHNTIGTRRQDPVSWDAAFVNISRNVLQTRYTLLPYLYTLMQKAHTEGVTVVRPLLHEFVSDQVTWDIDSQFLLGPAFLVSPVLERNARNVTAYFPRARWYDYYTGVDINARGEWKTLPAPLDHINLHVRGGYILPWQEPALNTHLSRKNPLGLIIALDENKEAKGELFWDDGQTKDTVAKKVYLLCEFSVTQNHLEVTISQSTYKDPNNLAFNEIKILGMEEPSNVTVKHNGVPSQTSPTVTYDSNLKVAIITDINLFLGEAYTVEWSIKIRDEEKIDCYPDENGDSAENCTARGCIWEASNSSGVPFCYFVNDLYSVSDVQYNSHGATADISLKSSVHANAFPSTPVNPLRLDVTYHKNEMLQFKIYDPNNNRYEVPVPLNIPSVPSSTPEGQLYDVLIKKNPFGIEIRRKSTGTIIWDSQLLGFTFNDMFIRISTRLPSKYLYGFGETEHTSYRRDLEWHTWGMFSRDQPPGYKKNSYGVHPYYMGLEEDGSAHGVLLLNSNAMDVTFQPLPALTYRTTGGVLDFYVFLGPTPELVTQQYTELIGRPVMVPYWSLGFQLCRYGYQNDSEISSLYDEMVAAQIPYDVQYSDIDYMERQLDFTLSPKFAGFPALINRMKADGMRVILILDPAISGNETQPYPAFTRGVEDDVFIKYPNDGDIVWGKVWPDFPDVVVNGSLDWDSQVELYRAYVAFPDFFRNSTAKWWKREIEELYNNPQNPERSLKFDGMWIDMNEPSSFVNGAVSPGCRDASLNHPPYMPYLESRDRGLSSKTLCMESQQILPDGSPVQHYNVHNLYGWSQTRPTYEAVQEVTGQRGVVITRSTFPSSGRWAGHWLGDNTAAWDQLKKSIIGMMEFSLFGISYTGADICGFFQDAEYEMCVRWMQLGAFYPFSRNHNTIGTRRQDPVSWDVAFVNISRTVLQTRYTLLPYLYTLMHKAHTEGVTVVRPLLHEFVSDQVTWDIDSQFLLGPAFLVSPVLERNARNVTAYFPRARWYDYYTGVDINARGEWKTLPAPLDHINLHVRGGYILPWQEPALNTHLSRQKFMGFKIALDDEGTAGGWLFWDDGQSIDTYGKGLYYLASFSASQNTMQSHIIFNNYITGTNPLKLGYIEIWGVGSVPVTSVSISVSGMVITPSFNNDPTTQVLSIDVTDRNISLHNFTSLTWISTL

Row | SMILES | pIC50
1 | C=C1CC[C@@H]2[C@](C)(CO)[C@H](O)CC[C@@]2(C)[C@@H]1/C=C/C1=CC(=C/CCC)/OC1=O [5-butylidene-3-(2-((1R,4aS,5R,6R,8aR)-6-hydroxy-5-(hydroxymethyl)-5,8a-dimethyl-2-methylene-decahydronaphthalen-1-yl)vinyl)furan-2(5H)-one] | 3.96
2 | COc1ccc(/C=C2C=C(/C=C/[C@@H]3[C@@]4(CC[C@@H]5[C@](C)(CO)[C@H](O)CC[C@]53C)CO4)C(=O)O/2)cc1 [(5Z)-3-[(E)-2-[(1S,2S,4aS,5R,6R,8aR)-6-hydroxy-5-(hydroxymethyl)-5,8a-dimethyl-octahydro-1H-spiro[naphthalene-2,2'-oxirane]-1-yl]ethenyl]-5-[(4-methoxyphenyl)methylidene]-2,5-dihydrofuran-2-one] | 3.92
3 | C=C1CC[C@@H]2[C@]3(C)COC(c4cccc(Br)c4)O[C@@H]3CC[C@@]2(C)[C@@H]1C/C=C1/C(=O)OC[C@H]1O (stereo partly drawn) [(S)-3-(2-((4aR,6aS,7R,10aS,10bR)-3-(3-bromophenyl)-6a,10b-dimethyl-8-methylene-decahydro-1H-naphtho[2,1-d][1,3]dioxin-7-yl)ethylidene)-4-hydroxy-dihydrofuran-2(3H)-one] | 4.00
4 | C=C1CC[C@@H]2[C@]3(C)COC(c4ccccc4)O[C@@H]3CC[C@@]2(C)[C@@H]1C/C=C1/C(=O)OC[C@H]1O (stereo partly drawn) [(S)-3-(2-((4aR,6aS,7R,10aS,10bR)-6a,10b-dimethyl-8-methylene-3-phenyl-decahydro-1H-naphtho[2,1-d][1,3]dioxin-7-yl)ethylidene)-4-hydroxy-dihydrofuran-2(3H)-one] | 4.00

Other lines, results leading:

Row | pIC50 | SMILES
5 | 4.24 | C=C1CC[C@@H]2[C@](C)(CO)[C@H](O)CC[C@@]2(C)[C@@H]1/C=C/C1=CC(=C/C=C/c2ccccc2)/OC1=O [3-(2-((1R,4aS,5R,6R,8aR)-6-hydroxy-5-(hydroxymethyl)-5,8a-dimethyl-2-methylene-decahydronaphthalen-1-yl)vinyl)-5-(3-phenylallylidene)furan-2(5H)-one]
6 | 4.00 | C[C@]1(CO)[C@H]2CC[C@@]3(CO3)[C@@H](/C=C/C3=CC(=C/C=C/c4ccccc4)/OC3=O)[C@]2(C)CC[C@H]1O [(5Z)-3-[(E)-2-[(1S,2S,4aS,5R,6R,8aR)-6-hydroxy-5-(hydroxymethyl)-5,8a-dimethyl-octahydro-1H-spiro[naphthalene-2,2'-oxirane]-1-yl]ethenyl]-5-[(2E)-3-phenylprop-2-en-1-ylidene]-2,5-dihydrofuran-2-one]
